The target of one assay is wild-type EGFR enzyme (Homo sapiens, UniProt P00533). As to the kind of experiment: Enzymologic experiment of wild-type (WT) EGFR (TR-FRET). The format is biochemical. Particulars: ATP 0.1 to 5 uM. Summed up: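 Wild-type EGFR (0.1 to 1 nM final) preincubated with serially diluted compound for 10 minutes at room temperature; reaction stopped with EDTA, then labelled antibody added for 1 hour at room temperature. TR-FRET signal converted to inhibition rates; IC50 from curve fitting across concentrations.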

Assay [1] deals with exon 20 T790M mutant-type EGFR enzyme (Homo sapiens, UniProt P00533, T790M). As to the kind of experiment: Enzymologic experiment of T790M mutant-type EGFR (TR-FRET). The format is biochemical. The conditions noted are these: for IC50: T790M EGFR enzyme, TR-FRET, ATP 1 to 10 uM; for Selectivity of wild-type/mutant-type: ratio WT IC50 / T790M IC50, enzyme. Summed up: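 Compound dilutions preincubated 10 min at room temperature; reaction ended with EDTA, then labeled antibody added for 1 h at room temperature. Inhibition rates derived from TR-FRET fluorescence signal, and IC50 obtained by curve fitting across concentrations.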

The next assay relates to NCI-H1975 cells. Kind of assay: Inhibition of NCI-H1975 cell proliferation (CellTiter-Glo). The format is cell-based. Particulars: for IC50: NCI-H1975 cell proliferation, 72 hours, CellTiter-Glo, read-out: EGFR IC50 (nM) H1975; for Selectivity of wild-type/mutant-type: ratio A431 IC50 / H1975 IC50, cells.
The next assay relates to A431 cells. Kind of assay: Inhibition of A431 cell proliferation (CellTiter-Glo). The conditions noted are these: read-out: EGFR IC50 (nM) A431. The format is cell-based. Summed up: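 Viability read as CellTiter-Glo luminescence; IC50 by curve fitting of inhibition rates.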

Where two headings read alike, the source gives them in different places.

exon 20 T790M mutant-type EGFR enzyme, sequence (P00533 25-1210 T790M): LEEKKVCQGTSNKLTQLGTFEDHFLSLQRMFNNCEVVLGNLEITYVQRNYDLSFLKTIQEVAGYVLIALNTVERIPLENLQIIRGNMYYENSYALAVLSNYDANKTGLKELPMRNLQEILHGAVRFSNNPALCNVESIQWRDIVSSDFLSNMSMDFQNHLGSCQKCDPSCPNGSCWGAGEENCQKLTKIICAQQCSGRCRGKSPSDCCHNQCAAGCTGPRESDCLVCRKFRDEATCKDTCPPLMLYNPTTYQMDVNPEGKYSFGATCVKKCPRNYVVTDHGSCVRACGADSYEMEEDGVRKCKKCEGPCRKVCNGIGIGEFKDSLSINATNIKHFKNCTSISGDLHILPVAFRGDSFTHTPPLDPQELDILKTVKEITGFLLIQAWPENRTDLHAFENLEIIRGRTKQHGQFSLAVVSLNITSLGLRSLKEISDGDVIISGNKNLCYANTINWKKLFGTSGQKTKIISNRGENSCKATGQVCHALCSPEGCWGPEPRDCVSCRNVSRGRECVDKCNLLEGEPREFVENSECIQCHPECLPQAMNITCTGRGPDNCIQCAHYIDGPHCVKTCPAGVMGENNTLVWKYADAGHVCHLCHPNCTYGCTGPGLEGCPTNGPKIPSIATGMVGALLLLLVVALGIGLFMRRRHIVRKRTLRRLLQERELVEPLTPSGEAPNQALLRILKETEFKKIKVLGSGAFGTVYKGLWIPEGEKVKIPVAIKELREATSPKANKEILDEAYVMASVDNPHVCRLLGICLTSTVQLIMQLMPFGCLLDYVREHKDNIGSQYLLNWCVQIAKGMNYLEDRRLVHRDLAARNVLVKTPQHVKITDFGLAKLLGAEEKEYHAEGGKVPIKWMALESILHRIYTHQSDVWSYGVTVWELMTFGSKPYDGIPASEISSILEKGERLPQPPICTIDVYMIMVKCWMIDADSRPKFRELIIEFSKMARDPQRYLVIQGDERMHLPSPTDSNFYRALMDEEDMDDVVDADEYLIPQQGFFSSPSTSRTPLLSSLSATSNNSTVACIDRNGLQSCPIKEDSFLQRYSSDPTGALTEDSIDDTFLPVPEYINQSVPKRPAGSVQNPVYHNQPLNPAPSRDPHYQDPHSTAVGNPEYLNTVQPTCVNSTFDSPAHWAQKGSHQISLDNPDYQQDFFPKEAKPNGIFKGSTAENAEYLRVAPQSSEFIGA
wild-type EGFR enzyme, sequence (P00533 25-1210): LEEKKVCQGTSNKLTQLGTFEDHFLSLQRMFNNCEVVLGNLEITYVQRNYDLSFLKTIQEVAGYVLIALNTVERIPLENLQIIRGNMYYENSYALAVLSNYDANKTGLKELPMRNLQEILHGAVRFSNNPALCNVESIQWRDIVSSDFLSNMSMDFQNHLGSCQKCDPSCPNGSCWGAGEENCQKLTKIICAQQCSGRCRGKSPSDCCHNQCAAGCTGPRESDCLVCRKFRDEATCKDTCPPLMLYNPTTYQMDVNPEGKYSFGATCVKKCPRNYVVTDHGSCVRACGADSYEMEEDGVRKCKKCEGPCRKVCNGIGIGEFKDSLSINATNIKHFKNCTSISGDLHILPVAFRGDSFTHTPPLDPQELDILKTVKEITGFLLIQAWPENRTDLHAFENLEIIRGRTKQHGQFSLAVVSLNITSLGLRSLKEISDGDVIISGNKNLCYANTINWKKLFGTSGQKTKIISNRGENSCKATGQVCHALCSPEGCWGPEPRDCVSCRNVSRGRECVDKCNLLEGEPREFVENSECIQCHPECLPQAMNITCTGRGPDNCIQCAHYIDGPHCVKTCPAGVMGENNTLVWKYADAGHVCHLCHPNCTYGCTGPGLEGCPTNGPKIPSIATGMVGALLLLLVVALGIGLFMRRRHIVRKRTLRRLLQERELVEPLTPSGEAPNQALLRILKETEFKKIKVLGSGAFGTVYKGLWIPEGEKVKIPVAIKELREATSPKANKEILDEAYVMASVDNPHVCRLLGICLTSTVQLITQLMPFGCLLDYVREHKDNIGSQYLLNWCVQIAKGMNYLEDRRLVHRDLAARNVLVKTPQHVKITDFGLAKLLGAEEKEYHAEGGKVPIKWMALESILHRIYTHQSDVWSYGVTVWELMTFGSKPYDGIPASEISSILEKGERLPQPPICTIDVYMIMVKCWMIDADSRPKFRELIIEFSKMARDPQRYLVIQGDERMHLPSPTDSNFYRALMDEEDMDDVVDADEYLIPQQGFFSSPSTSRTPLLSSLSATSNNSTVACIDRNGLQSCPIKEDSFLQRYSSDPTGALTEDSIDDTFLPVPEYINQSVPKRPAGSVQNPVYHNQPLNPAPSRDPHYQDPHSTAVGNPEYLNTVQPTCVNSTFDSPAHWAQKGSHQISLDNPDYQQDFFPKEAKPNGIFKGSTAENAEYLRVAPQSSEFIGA

Regarding `C=CC(=O)Nc1cc(Nc2nccc(-c3c[nH]c4cc(OC)ccc34)n2)c(OC)cc1N(C)CCN(C)C` [Example 97, N-(2-((2-(dimethylamino)ethyl)(methyl)amino)-4-methoxy-5-((4-(6-methoxy-1H-indol-3-yl)pyrimidin-2-yl)amino)phenyl)acrylamide], the 50% inhibitory concentration (IC50) at wild-type EGFR enzyme amounted to 0.5 nM; in assay [1] it was 0.18 nM; with NCI-H1975 cells (Homo sapiens, NCI-H1975, 72 h), 1.28 nM; with A431 cells (Homo sapiens, A-431, 72 h) it was 141 nM. The Selectivity of wild-type/mutant-type in assay [1] amounted to 2.78; in the assay on NCI-H1975 cells it was 109.92.
Consider `C=CC(=O)Nc1cc(Nc2ncc(Cl)c(-c3cn(C)c4cc(OC)ccc34)n2)c(OC)cc1N(C)CCN(C)C` [Example 98, N-(5-((5-chloro-4-(6-methoxy-1-methyl-1H-indol-3-yl)pyrimidin-2-yl)amino)-2-((2-(dimethylamino)ethyl)(methyl)amino)-4-methoxyphenyl)acrylamide], for which the IC50 stood at 1 nM against wild-type EGFR enzyme; 0.2 nM in assay [1]; 2.92 nM in the assay with NCI-H1975 cells (Homo sapiens, NCI-H1975, 72 h); 154 nM in the assay on A431 cells (Homo sapiens, A-431, 72 h). Also, the Selectivity of wild-type/mutant-type in assay [1] stood at 5.00; with NCI-H1975 cells, 52.71.
Consider `C=CC(=O)Nc1cc(Nc2ncc(C(F)(F)F)c(-c3cn(C)c4cc(OC)ccc34)n2)c(OC)cc1N(C)CCN(C)C` [Example 99, N-(2-((2-(dimethylamino)ethyl)(methyl)amino)-4-methoxy-5-((4-(6-methoxy-1-methyl-1H-indol-3-yl)-5-(trifluoromethyl)pyrimidin-2-yl)amino)phenyl)acrylamide], for which the IC50 is 5.01 nM against wild-type EGFR enzyme; 0.21 nM in assay [1]; 2.08 nM with NCI-H1975 cells (Homo sapiens, NCI-H1975, 72 h); 36.5 nM with A431 cells (Homo sapiens, A-431, 72 h). The Selectivity of wild-type/mutant-type in assay [1] is recorded as 23.86; with NCI-H1975 cells, 17.57.
For the compound `C=CC(=O)Nc1cc(Nc2nccc(-c3cn(S(=O)(=O)N(C)C)c4ccccc34)n2)c(OC)cc1N(C)CCN(CC)CC` [Example 103, N-(2-((2-(diethylamino)ethyl)(methyl)amino)-5-((4-(1-(N,N-dimethylsulfamoyl)-1H-indol-3-yl)pyrimidin-2-yl)amino)-4-methoxyphenyl)acrylamide], the IC50 against wild-type EGFR enzyme was 1.61 nM; in assay [1], 0.24 nM; with NCI-H1975 cells (Homo sapiens, NCI-H1975, 72 h), 1.95 nM; in the assay with A431 cells (Homo sapiens, A-431, 72 h), 98.6 nM. Further, the Selectivity of wild-type/mutant-type in assay [1] was found to be 6.71; in the assay with NCI-H1975 cells, 50.55.
`C=CC(=O)Nc1cc(Nc2nccc(-n3ncc4cc(OCC)ccc43)n2)c(OC)cc1N(C)CCN(C)C` [Example 105, N-(2-((2-(dimethylamino)ethyl)(methyl)amino)-5-((4-(5-ethoxy-1H-indazol-1-yl)pyrimidin-2-yl)amino)-4-methoxyphenyl)acrylamide]: the IC50 turned out to be 0.62 nM on wild-type EGFR enzyme; 0.26 nM in assay [1]; 3.12 nM in the assay with NCI-H1975 cells (Homo sapiens, NCI-H1975, 72 h); 887 nM with A431 cells (Homo sapiens, A-431, 72 h). In addition, the results for the Selectivity of wild-type/mutant-type (in assay [1]; in the assay on NCI-H1975 cells) were 2.38 and 284.29, respectively.
With `C=CC(=O)Nc1cc(Nc2ncc(C(F)(F)F)c(-n3nc(C)c4cc(C#N)ccc43)n2)c(OC)cc1N(C)CCN(C)C` [Example 106, N-(5-((4-(5-cyano-3-methyl-1H-indazol-1-yl)-5-(trifluoromethyl)pyrimidin-2-yl)amino)-2-((2-(dimethylamino)ethyl)(methyl)amino)-4-methoxyphenyl)acrylamide], the IC50 worked out at 190 nM on wild-type EGFR enzyme; 0.88 nM in assay [1]; 14.3 nM in the assay on NCI-H1975 cells (Homo sapiens, NCI-H1975, 72 h); 354 nM in the assay on A431 cells (Homo sapiens, A-431, 72 h). Also, the Selectivity of wild-type/mutant-type in assay [1] was determined as 216.14; in the assay on NCI-H1975 cells, 24.70.
With `C=CC(=O)Nc1cc(Nc2ncc(C(F)(F)F)c(-n3nc(C)c4cc(OC)ccc43)n2)c(OC)cc1N(C)CCN(C)C` [Example 107], the IC50 amounted to 28 nM against wild-type EGFR enzyme; 0.76 nM in assay [1]; 2.76 nM in the assay with NCI-H1975 cells (Homo sapiens, NCI-H1975, 72 h); 98.3 nM in the assay with A431 cells (Homo sapiens, A-431, 72 h). Also, the Selectivity of wild-type/mutant-type in assay [1] is on record as 36.84; in the assay with NCI-H1975 cells it was 35.61.
Consider `C=CC(=O)Nc1cc(Nc2nccc(-n3nc(C4CC4)c4ccccc43)n2)c(OC)cc1N(C)CCN(C)C` [Example 111, N-(5-((4-(3-cyclopropyl-1H-indazol-1-yl)pyrimidin-2-yl)amino)-2-((2-(dimethylamino)ethyl)(methyl)amino)-4-methoxyphenyl)acrylamide], for which the IC50 at wild-type EGFR enzyme is 2.77 nM; in assay [1], 0.42 nM; with NCI-H1975 cells, 5.65 nM; with A431 cells (72 hours) it was 314 nM. The Selectivity of wild-type/mutant-type amounted to 6.60 in assay [1] and 55.52 in the assay with NCI-H1975 cells.
`C=CC(=O)Nc1cc(Nc2nccc(-n3ncc4ccc(C#N)cc43)n2)c(OC)cc1N(C)CCN(C)C` [Example 112, N-(5-((4-(6-cyano-1H-indazol-1-yl)pyrimidin-2-yl)amino)-2-((2-(dimethylamino)ethyl)(methyl)amino)-4-methoxyphenyl)acrylamide]: the IC50 at wild-type EGFR enzyme was determined as 46.9 nM; in assay [1] it was 3.45 nM; in the assay on NCI-H1975 cells (Homo sapiens, NCI-H1975, 72 h) it was 15.6 nM; with A431 cells (Homo sapiens, A-431, 72 h) it was 257 nM. Besides, the Selectivity of wild-type/mutant-type in assay [1] stood at 13.61; in the assay with NCI-H1975 cells, 16.51.
On to `C=CC(=O)Nc1cc(Nc2nccc(-n3nc(C4CC4)c4cc(OC)ccc43)n2)c(OC)cc1N(C)CCN(C)C` [Example 113, N-(5-((4-(3-cyclopropyl-5-methoxy-1H-indazol-1-yl)pyrimidin-2-yl)amino)-2-((2-(dimethylamino)ethyl)(methyl)amino)-4-methoxyphenyl)acrylamide], for which the IC50 is 1.62 nM against wild-type EGFR enzyme; 0.36 nM in assay [1]; 3.17 nM with NCI-H1975 cells (Homo sapiens, NCI-H1975, 72 h); 233 nM with A431 cells (Homo sapiens, A-431, 72 h). Besides, the Selectivity of wild-type/mutant-type in assay [1] stood at 4.50; in the assay with NCI-H1975 cells, 73.42.
For `C=CC(=O)Nc1cc(Nc2ncc(C(F)(F)F)c(-n3nc(C4CC4)c4cc(OC)ccc43)n2)c(OC)cc1N(C)CCN(C)C` [Example 114, N-(5-((4-(3-cyclopropyl-5-methoxy-1H-indazol-1-yl)-5-(trifluoromethyl)pyrimidin-2-yl)amino)-2-((2-(dimethylamino)ethyl)(methyl)amino)-4-methoxyphenyl)acrylamide], the IC50 against wild-type EGFR enzyme turned out to be 42 nM; in assay [1] it was 2.28 nM; in the assay with NCI-H1975 cells (Homo sapiens, NCI-H1975, 72 h), 11.6 nM; with A431 cells (Homo sapiens, A-431, 72 h), 122 nM. Moreover, the Selectivity of wild-type/mutant-type in assay [1] is 18.40; in the assay with NCI-H1975 cells, 10.47.
Regarding `C=CC(=O)Nc1cc(Nc2ncc(Cl)c(-n3nc(C4CC4)c4cc(OC)ccc43)n2)c(OC)cc1N(C)CCN(C)C` [Example 115, N-(5-((5-chloro-4-(3-cyclopropyl-5-methoxy-1H-indazol-1-yl)pyrimidin-2-yl)amino)-2-((2-(dimethylamino)ethyl)(methyl)amino)-4-methoxyphenyl)acrylamide], the IC50 was found to be 3.94 nM against wild-type EGFR enzyme; 0.37 nM in assay [1]; 4.98 nM in the assay with NCI-H1975 cells (Homo sapiens, NCI-H1975, 72 h); 101 nM in the assay with A431 cells (Homo sapiens, A-431, 72 h). Further, the Selectivity of wild-type/mutant-type in assay [1] is 10.65; in the assay with NCI-H1975 cells, 20.34.
In the case of `C=CC(=O)Nc1cc(Nc2ncc(C(F)(F)F)c(-n3nc(CC)c4cc(C#N)ccc43)n2)c(OC)cc1N(C)CCN(C)C` [Example 117, N-(5-((4-(5-cyano-3-ethyl-1H-indazol-1-yl)-5-(trifluoromethyl)pyrimidin-2-yl)amino)-2-((2-(dimethylamino)ethyl)(methyl)amino)-4-methoxyphenyl)acrylamide], the half-maximal inhibitory concentration (IC50) was determined as 43.3 nM against wild-type EGFR enzyme; 0.61 nM in assay [1]; 29.9 nM with NCI-H1975 cells (Homo sapiens, NCI-H1975, 72 h); 199 nM in the assay with A431 cells (Homo sapiens, A-431, 72 h). In addition, the figures for the Selectivity of wild-type/mutant-type (in assay [1]; with NCI-H1975 cells) were 71.05 and 6.65, respectively.
For `C=CC(=O)Nc1cc(Nc2ncc(Cl)c(-n3nc(CC)c4cc(C#N)ccc43)n2)c(OC)cc1N(C)CCN(C)C` [Example 118, N-(5-((5-chloro-4-(5-cyano-3-ethyl-1H-indazol-1-yl)pyrimidin-2-yl)amino)-2-((2-(dimethylamino)ethyl)(methyl)amino)-4-methoxyphenyl)acrylamide], the IC50 against wild-type EGFR enzyme came out at 27.9 nM; in assay [1], 0.71 nM; with NCI-H1975 cells (Homo sapiens, NCI-H1975, 72 h) it was 93.7 nM; in the assay on A431 cells (Homo sapiens, A-431, 72 h) it was 374 nM. Also, the results for the Selectivity of wild-type/mutant-type (in assay [1]; in the assay with NCI-H1975 cells) were 39.30 and 3.99, respectively.
With `C=CC(=O)Nc1cc(Nc2nccc(-n3cnc4ccccc43)n2)c(OC)cc1N(C)CCN(C)C` [Example 120, N-(5-((4-(1H-benzo[d]imidazol-1-yl)pyrimidin-2-yl)amino)-2-((2-(dimethylamino)ethyl)(methyl)amino)-4-methoxyphenyl)acrylamide], the IC50 is 3.66 nM against wild-type EGFR enzyme; 1.05 nM in assay [1]; 4.91 nM with NCI-H1975 cells (Homo sapiens, NCI-H1975, 72 h); 115 nM in the assay with A431 cells (Homo sapiens, A-431, 72 h). The values for the Selectivity of wild-type/mutant-type (in assay [1]; in the assay with NCI-H1975 cells) were 3.49 and 23.44, respectively.
